According to patent publication US9629828B2, “Methods of treating traveler's diarrhea and hepatic encephalopathy” (priority 2008, dated 2017):
“And” between values parts separate entries of the source, which are not always exact repeats. Identical values can stand only once.

Key:
[1] = system: rats; conditions: rat, in vivo
From the text: (§1) These effects include cleft palate, agnatha, jaw shortening, hemorrhage, eye partially open, small eyes, brachygnathia, incomplete ossification, and increased thoracolumbar vertebrae.

[2] = system: rabbits; conditions: rabbit, in vivo
From the text: as §1

[3] = system: patients with HE; conditions: rifaximin 1200 mg/day, neomycin 3 g/day; cited from earlier work
[4] = system: subjects in remission from hepatic encephalopathy (HE); assay: First study: critical flicker frequency (CFF) test; type: in vivo, human; conditions: for Critical flicker frequency test: r9 Mean, r11 Median, r12 Min, r13 Max; for Mean (SD) change in CFF result: baseline to end of treatment
Method: The Critical Flicker Frequency (CFF) was assessed for each subject at screening, baseline, visits 3 through 14 and the end of study visit using the Lafayette Flicker Fusion (Lafayette Instrument Company, Inc). Circular light pulses with a 1:1 ratio between the visual impulse and the interval were used with decreasing frequency in gradual steps of 0.5 to 0.1 Hz/second. The frequency of the white light, which is initially generated as a high-frequency pulse (50 Hz) and which gives the patient the impression of a steady light, was reduced gradually until the patient had the impression that the steady light had changed to a flicker. The patient registered this change by pressing a hand-held switch. […] The process was conducted in a quiet, semi-darkened room without distracting noises and took about 10 minutes.
The critical flicker frequency (CFF) was assessed for each subject using a specialized CFF instrument. The CFF is the frequency at which the subject observes a constant light transition to a flickering light and is measured in Hertz (Hz). CFF is an objective assessment of mental status.
The CFF was measured on a continuous scale and was the mean of 8 separate fusion-to-flicker transition tests performed in rapid succession.
Mean values and mean changes from baseline in blood ammonia concentration and critical flicker frequency values were collected. Analyses of blood ammonia concentrations and critical flicker frequency values were based upon quantitative values (not qualitative grades). Treatment differences for mean change from baseline in these parameters was estimated using a mixed effects model with fixed effects for time and baseline value.

[5] = in vitro; conditions: human, plasma
[6] = system: subjects in remission from hepatic encephalopathy (HE); assay: First study: HE-related, HE-caused and all-cause hospitalization; type: in vivo, human; conditions: for Probability of no HE-related hospitalization: Kaplan-Meier; for Probability of no HE-related hospitalization / Cumulative number of events (HE-related hospitalization) / Event probability (HE-related hospitalization during the treatment interval) / Number of events (HE-related hospitalization): ITT, N = 140
From the text: The analysis of time to first HE-related hospitalization was based on the comparison of time to hospitalization between rifaximin and placebo.
FIG. 9 illustrates time to first HE-related hospitalization (e.g., hospitalization directly resulting from HE or hospitalization caused by HE) by treatment group in the ITT population in the first study. Table 19 presents estimates of the proportions of subjects who had their first HE-related hospitalization over the course of the Treatment Period and results of statistical analyses. Subjects who discontinued prior to hospitalization due to HE and prior to completion of the 6-month treatment period were censored at the time of discontinuation. […] This hazard ratio represents a 50% reduction, when compared with placebo, in the risk of hospitalization due to HE during the 6-month treatment period.
FIG. 5 illustrates time to first HE-caused hospitalizations by treatment group in the first study.

[7] = system: subjects in remission from hepatic encephalopathy (HE); assay: First study: Conn score (time to any increase, change from baseline); type: in vivo, human; conditions: for Event probability (increase in Conn score during the treatment interval) / Probability of no increase in Conn score: Kaplan-Meier; for Event probability (increase in Conn score during the treatment interval) / Probability of no increase in Conn score / Cumulative number of events (increase in Conn score) / Number of events (increase in Conn score): ITT, N = 140
From the text: The scale used in the Conn scoring system is provided below. • Grade 0=No personality or behavioral abnormality detected • Grade 1=Trivial lack of awareness, euphoria or anxiety; shortened attention span; impairment of addition or subtraction • Grade 2=Lethargy; disorientation for time; obvious personality change; inappropriate behavior • Grade 3=Somnolence to semi-stupor, responsive to stimuli; confused; gross disorientation; bizarre behavior • Grade 4=Coma; unable to test mental state
Change in mental status was measured by the Conn score (also known as the West Haven score). The Conn score has been widely used as a measure of mental state in HE studies and is based on the criteria of Parsons-Smith as modified by Conn. The scale used in the Conn scoring system is described above.
Subjects who discontinued prior to experiencing an increase in Conn score and prior to completion of the 6-month treatment period were censored at the time of discontinuation.

[8] = clinical; conditions: male, human, in vivo
[9] = treatment interval 0 to <28 days
[10] = treatment interval 28 to <56 days
[11] = treatment interval 56 to <84 days
[12] = treatment interval 84 to <140 days
[13] = treatment interval 140 to <168 days

CO[C@H]1/C=C/O[C@@]2(C)Oc3c(C)c(O)c4c(O)c(c5c(nc6cc(C)ccn65)c4c3C2=O)NC(=O)/C(C)=C\C=C\[C@H](C)[C@H](O)[C@@H](C)[C@@H](O)[C@@H](C)[C@H](OC(C)=O)[C@@H]1C [rifaximin, (2S,16Z,18E,20S,21S,22R,23R,24R,25 S,26S,27S,28E)-5,6,21,23,25-pentahydroxy-27-methoxy-2,4,11,16,20,22,24,26-octamethyl-2,7-(epoxypentadeca-[1,11,13]trienimino)benzofuro[4,5-e]pyrido[1,2-á]-benzimidazole-1,15(2H)-dione,25-acetate]
fertility / harm to the fetus [1]: no evidence of impaired fertility or harm to the fetus
fertility / harm to the fetus [2]: no evidence of impaired fertility or harm to the fetus
efficacy in patients with HE [3]: comparable efficacy
Mean (SD) CFF result ([4]; Baseline): 36.90 (5.47) Hz
Critical flicker frequency test ([4]; Day 140, mean): 38.7 Hz
Critical flicker frequency test ([4]; Day 140, median): 38.9 Hz
Critical flicker frequency test ([4]; EOT, median): 37.8 Hz
Mean (SD) CFF result ([4]; End of treatment): 37.81 (4.88) Hz
Mean (SD) change in CFF result [4]: 0.945 (±4.75) Hz
Mean (SD) change in CFF result ([4]; listed as Rifaximin): 0.945 (4.75) Hz
improvement in CFF results compared with placebo ([4]; in vivo): statistically significant greater improvement
fraction unbound [5]: 0.447
reduction in risk of HE-caused hospitalization vs placebo ([6]; 6-month treatment): 56%
reduction in risk of HE-related hospitalization vs placebo ([6]; 6-month treatment): 50%
Probability of no HE-related hospitalization [6, 9]: 1.0000
Probability of no HE-related hospitalization [6, 10]: 0.9711
Probability of no HE-related hospitalization [6, 11]: 0.9411
Probability of no HE-related hospitalization [6, 12]: 0.0904
Probability of no HE-related hospitalization [6, 13]: 0.8665
Probability of no HE-related hospitalization ([6]; treatment interval ≧168 days): 0.8475
Survival ([6]; Table 4, N = 140, days r11-r21 as E901): 1.0000 and 0.9564 and 0.9258 and 0.8848 and 0.8403 and 0.8108
Survival ([6]; Table 17, days r10-r15 as E2201): 1.0000 and 0.9711 and 0.9411 and 0.9094 and 0.8665 and 0.8475
HE-caused hospitalization rate ([6]; first study): 0.30 events/PEY
HE-related hospitalization rate lower than placebo ([6]; in vivo): 51%
reduction in risk of all-cause hospitalization vs placebo ([6]; in vivo): 30%
subjects with HE-caused hospitalizations ([6]; in vivo): 15 of 140
subjects with all-cause hospitalization ([6]; in vivo): 46 of 140
time to first HE related hospitalization vs placebo (FIG. 3) ([6]; in vivo): increased time to hospitalization
HE-related hospitalization rate ([6]; normalized to exposure): 0.38 event/PEY
Cumulative number of events (HE-related hospitalization) [6, 9]: 4
Event probability (HE-related hospitalization during the treatment interval) [6, 9]: 0.03
Number of events (HE-related hospitalization) [6, 9]: 4
Cumulative number of events (HE-related hospitalization) [6, 10]: 8
Event probability (HE-related hospitalization during the treatment interval) [6, 10]: 0.03
Number of events (HE-related hospitalization) [6, 10]: 4
Cumulative number of events (HE-related hospitalization) [6, 11]: 12
Event probability (HE-related hospitalization during the treatment interval) [6, 11]: 0.03
Number of events (HE-related hospitalization) [6, 11]: 4
Cumulative number of events (HE-related hospitalization) [6, 12]: 17
Event probability (HE-related hospitalization during the treatment interval) [6, 12]: 0.05
Number of events (HE-related hospitalization) [6, 12]: 5
Cumulative number of events (HE-related hospitalization) [6, 13]: 19
Event probability (HE-related hospitalization during the treatment interval) [6, 13]: 0.02
Number of events (HE-related hospitalization) [6, 13]: 2
Cumulative number of events (HE-related hospitalization) ([6]; treatment interval ≧168 days): 19
Event probability (HE-related hospitalization during the treatment interval) ([6]; treatment interval ≧168 days): 0
Number of events (HE-related hospitalization) ([6]; treatment interval ≧168 days): 0
Event probability (increase in Conn score during the treatment interval) [7, 9]: 0.012
Probability of no increase in Conn score [7, 9]: 1.0000
Event probability (increase in Conn score during the treatment interval) [7, 10]: 0.04
Probability of no increase in Conn score [7, 10]: 0.8777
Event probability (increase in Conn score during the treatment interval) [7, 11]: 0.08
Probability of no increase in Conn score [7, 11]: 0.8407
Event probability (increase in Conn score during the treatment interval) [7, 12]: 0.05
Probability of no increase in Conn score [7, 12]: 0.7713
Event probability (increase in Conn score during the treatment interval) [7, 13]: 0
Probability of no increase in Conn score [7, 13]: 0.7302
Event probability (increase in Conn score during the treatment interval) ([7]; treatment interval ≧168 days): 0.03
Probability of no increase in Conn score ([7]; treatment interval ≧168 days): 0.7302
Survival ([7]; any increase in Conn score, days r10-r15 as E1001): 1.0000 and 0.8777 and 0.8407 and 0.7713 and 0.7302
subjects with Conn score changes of −1 or no change ([7]; baseline to end of treatment): 77.1%
prevention of worsening of Conn score, times versus placebo ([7]; in vivo): 2.46 times
reduction in risk of first worsening in Conn Score ([7]; in vivo): 54%
subjects with increases in Conn score ([7]; in vivo): 37 of 140
time to first increase in Conn scores vs placebo (FIG. 4) ([7]; in vivo): increased time to the first increase in Conn scores
Cumulative number of events (increase in Conn score) [7, 9]: 17
Number of events (increase in Conn score) [7, 9]: 17
Cumulative number of events (increase in Conn score) [7, 10]: 22
Number of events (increase in Conn score) [7, 10]: 5
Cumulative number of events (increase in Conn score) [7, 11]: 31
Number of events (increase in Conn score) [7, 11]: 9
Cumulative number of events (increase in Conn score) [7, 12]: 36
Number of events (increase in Conn score) [7, 12]: 5
Cumulative number of events (increase in Conn score) [7, 13]: 36
Number of events (increase in Conn score) [7, 13]: 0
Cumulative number of events (increase in Conn score) ([7]; treatment interval ≧168 days): 37
Number of events (increase in Conn score) ([7]; treatment interval ≧168 days): 1
AUC(0-t) [8]: 19.5 ± 16.5 ng·h/mL
Cmax [8]: 4.3 ± 2.8 ng/mL
Tmax [8]: 1.25 h
